# Patent publication US20200068890A1 (Person to Whom the Inventor is Obligated to Assign, priority 2017, published 2020)
# “And” between values parts separate entries of the source, which are not always exact repeats. Equal values may be shown once. Read-outs that look alike come from different tables or passages of the source.
# Key:
# [1] = tested on: A. thaliana seedlings; assay: In planta seedling development and root length on GM/MS media; type: in vivo; conditions: for Normalised root / Root Length: individual plants 1-20
# Method: Gamborg modified/Murashige Skoog (GM/MS) media and soil were prepared as according to Table 6.
# A. thaliana seeds were sterilised including a 15 min wash step in 10% (v/v) commercial bleach without the addition of detergents. All plants were grown in a controlled environment room (CER) at 22±5° C. with 16 hrs: 8 hrs light: dark, 50-60% humidity under cool-white fluorescent light. Plants grown on soil were regularly watered and relocated within the CER.
# Basta was employed as a positive control at a final recommended concentration of 10 μg/mL (50 μM). Negative controls included 0% (v/v) DMSO (H2O) and 1% (v/v) DMSO (vehicle). Media was poured into 100 mL plates and allowed to set before adding 20 sterilised seeds per plate. Seeds were then stratified at 4° C. for 72 hrs in a dark room prior to relocation into a CER.
# The resulting growth plates were monitored daily and allowed to grow in an upright position for up to 14 days post stratification to determine the average root length using ImageJ analysis. Experiments were carried out in triplicates. Results were statistically validated using t-tests employing GraphPad Prism.
# [2] = tested on: Enterococcus faecium 12204; assay: Broth microdilution MIC; type: cell-based
# Method: (§1) Assays were carried out by a broth microdilution method using a 96-well plate according to guidelines defined by the European Committee on Antimicrobial Susceptibility Testing as described here. Overnight cultures of strains were grown in tryptic soy broth (TSB) at 37° C. The overnight cultures were diluted to a concentration of 1×10^6 bacteria/ml (OD600=0.01) in TSB media. To each well on 96 well plates, 100 μl of bacterially infected media at a concentration of 1×10^6/ml and compounds at various concentrations were added. An uninfected control (i.e. no bacteria) was also included. The plates were incubated at 37° C. wrapped in parafilm for 20 hrs. The growth was assessed by measuring the absorbance at 600 nm. The minimum inhibitory concentration (MIC) was determined to be the lowest concentration of compound that inhibits visible bacterial growth.
# [3] = tested on: Acinetobacter baumannii AYE; assay: Broth microdilution MIC; type: cell-based
# Method: as §1
# [4] = tested on: Pseudomonas aeruginosa PA01; assay: Broth microdilution MIC; type: cell-based
# Method: as §1
# [5] = tested on: Enterococcus faecalis 775; assay: Broth microdilution MIC; type: cell-based
# Method: as §1
# [6] = tested on: Klebsiella pneumoniae M6; assay: Broth microdilution MIC; type: cell-based
# Method: as §1
# [7] = tested on: EMRSA-15; assay: Broth microdilution MIC; type: cell-based
# Method: as §1
# [8] = tested on: Acinetobacter baumannii 17978; assay: Broth microdilution MIC; type: cell-based
# Method: as §1
# [9] = tested on: Enterococcus faecalis 12201; assay: Broth microdilution MIC; type: cell-based
# Method: as §1
# [10] = tested on: MSSA 9144; assay: Broth microdilution MIC; type: cell-based; conditions: Staphylococcus aureus
# Method: as §1
# [11] = tested on: Escherichia coli NCTC12923; assay: Broth microdilution MIC; type: cell-based
# Method: as §1
# [12] = tested on: EMRSA-16; assay: Broth microdilution MIC; type: cell-based
# Method: as §1
# [13] = tested on: Pseudomonas aeruginosa 13437; assay: Broth microdilution MIC; type: cell-based
# Method: as §1
# [14] = tested on: T1, A. thaliana DHDPS; assay: DHDPS-DHDPR coupled assay, dose response inhibitor assay; type: biochemical, Arabidopsis thaliana
# T1 construct: AtDHDPS|10|0.00008; no borders, domain or tags given
smiles,measurement,setting,value
"COc1ccc(/C=C2\SC(=O)N(CC(=O)O)C2=O)cc1 [Compound 5, (Z)-2-(5-(4-Methoxybenzylidene)-2,4-dioxothiazolidin-3-yl)acetic Acid]",Normalised root,[1]; 15.6 μM in GM/MS media,82.76 and 96.69 and 73.74 and 70.27 and 71.53 and 139.9 and 115.3 and 146.5 and 77.53 and 88.03 and 73.65 and 65.55 and 78.22 and 74.81 and 104.1 and 65.25 and 3.437 and 81.45 and 65.88 and 72.75
same,Root Length,[1]; 15.6 μM in GM/MS media,2.769 cm and 3.235 cm and 2.467 cm and 2.351 cm and 2.393 cm and 4.682 cm and 3.856 cm and 4.902 cm and 2.594 cm and 2.945 cm and 2.464 cm and 2.193 cm and 2.617 cm and 2.503 cm and 3.482 cm and 2.183 cm and 0.115 cm and 2.725 cm and 2.204 cm and 2.434 cm
same,Normalised root,[1]; 31.3 μM in GM/MS media,88.38 and 1.793 and 71.56 and 59.48 and 79.48 and 5.948
same,Root Length,[1]; 31.3 μM in GM/MS media,2.957 cm and 0.06 cm and 2.394 cm and 1.99 cm and 2.659 cm and 0.199 cm
same,Normalised root,[1]; 62.5 μM in GM/MS media,7.413 and 36.02 and 1.315 and 72.21 and 57.81 and 43.67 and 43.88 and 58.91 and 47.85 and 54.64 and 35.81 and 30.88 and 2.78 and 15.18 and 44.24 and 60.59
same,Root Length,[1]; 62.5 μM in GM/MS media,0.248 cm and 1.205 cm and 0.044 cm and 2.416 cm and 1.934 cm and 1.461 cm and 1.468 cm and 1.971 cm and 1.601 cm and 1.828 cm and 1.198 cm and 1.033 cm and 0.093 cm and 0.508 cm and 1.48 cm and 2.027 cm
same,Normalised root,[1]; 125 μM in GM/MS media,17.75 and 24.42 and 18.71 and 21.94 and 21.31 and 20.59 and 21.58 and 22.78 and 6.905 and 15.15 and 6.636 and 15.69 and 16.44 (2×) and 2.062 and 14.11 and 1.016 and 19.97 and 13.33 and 0.8668
same,Root Length,[1]; 125 μM in GM/MS media,0.594 cm and 0.817 cm and 0.626 cm and 0.734 cm and 0.713 cm and 0.689 cm and 0.722 cm and 0.762 cm and 0.231 cm and 0.507 cm and 0.222 cm and 0.525 cm and 0.55 cm (2×) and 0.069 cm and 0.472 cm and 0.034 cm and 0.668 cm and 0.446 cm and 0.029 cm
same,Normalised root,[1]; 250 μM in GM/MS media,3.019 and 3.856 and 2.63 and 2.989 (2×) and 4.693 and 3.049 and 0.3886 and 5.021 and 2.541 and 2.451 and 12.37 and 5.051 and 4.812 and 3.497 and 2.361 and 1.225 and 2.272 and 0.8668 and 0.4185
same,Root Length,[1]; 250 μM in GM/MS media,0.101 cm and 0.129 cm and 0.088 cm and 0.1 cm (2×) and 0.157 cm and 0.102 cm and 0.013 cm and 0.168 cm and 0.085 cm and 0.082 cm and 0.414 cm and 0.169 cm and 0.161 cm and 0.117 cm and 0.079 cm and 0.041 cm and 0.076 cm and 0.029 cm and 0.014 cm
same,Normalised root,[1]; 500 μM in GM/MS media,0.807 and 0.9565 (3×) and 0.5978 and 2.72 and 0.4185 (2×) and 0.7472 and 0.9266 and 0.2391 and 0.3587 and 0.8668 and 1.375 and 1.315 and 3.348 and 1.853 and 0.9864
same,Root Length,[1]; 500 μM in GM/MS media,0.027 cm and 0.032 cm (3×) and 0.02 cm and 0.091 cm and 0.014 cm (2×) and 0.025 cm and 0.031 cm and 0.008 cm and 0.012 cm and 0.029 cm and 0.046 cm and 0.044 cm and 0.112 cm and 0.062 cm and 0.033 cm
same,seedling development,[1]; concentrations 125 μM and higher,did not develop past the point of hypocotyl formation
same,development and growth of A. thaliana (leaves),[1]; highest concentrations tested,lack of any chlorophyll containing leaves
same,MIC,"[2]; Enterococcus faecium 12204, replicate 1, read-out: MIC #1",> 64 µg/mL
same,MIC,"[2]; Enterococcus faecium 12204, replicate 2, read-out: MIC #2",> 64 µg/mL
same,MIC,"[2]; Enterococcus faecium 12204, replicate 3, read-out: MIC #3",> 64 µg/mL
same,MIC,"[3]; replicate 1, read-out: MIC #1",> 64 µg/mL
same,MIC,"[3]; replicate 2, read-out: MIC #2",> 64 µg/mL
same,MIC,"[3]; replicate 3, read-out: MIC #3",> 64 µg/mL
same,MIC,"[4]; Pseudomonas aeruginosa PA01, replicate 1, read-out: MIC #1",> 64 µg/mL
same,MIC,"[4]; Pseudomonas aeruginosa PA01, replicate 2, read-out: MIC #2",> 64 µg/mL
same,MIC,"[4]; Pseudomonas aeruginosa PA01, replicate 3, read-out: MIC #3",> 64 µg/mL
same,MIC,"[5]; Enterococcus faecalis 775, replicate 1, read-out: MIC #1",> 64 µg/mL
same,MIC,"[5]; Enterococcus faecalis 775, replicate 2, read-out: MIC #2",> 64 µg/mL
same,MIC,"[5]; Enterococcus faecalis 775, replicate 3, read-out: MIC #3",> 64 µg/mL
same,MIC,"[6]; Klebsiella pneumoniae M6, replicate 1, read-out: MIC #1",> 64 µg/mL
same,MIC,"[6]; Klebsiella pneumoniae M6, replicate 2, read-out: MIC #2",> 64 µg/mL
same,MIC,"[6]; Klebsiella pneumoniae M6, replicate 3, read-out: MIC #3",> 64 µg/mL
same,MIC,"[7]; EMRSA-15, replicate 1, read-out: MIC #1",> 64 µg/mL
same,MIC,"[7]; EMRSA-15, replicate 2, read-out: MIC #2",> 64 µg/mL
same,MIC,"[7]; EMRSA-15, replicate 3, read-out: MIC #3",> 64 µg/mL
same,MIC,"[8]; Acinetobacter baumannii 17978, replicate 1, read-out: MIC #1",> 64 µg/mL
same,MIC,"[8]; Acinetobacter baumannii 17978, replicate 2, read-out: MIC #2",> 64 µg/mL
same,MIC,"[8]; Acinetobacter baumannii 17978, replicate 3, read-out: MIC #3",> 64 µg/mL
same,MIC,"[9]; Enterococcus faecalis 12201, replicate 1, read-out: MIC #1",> 64 µg/mL
same,MIC,"[9]; Enterococcus faecalis 12201, replicate 2, read-out: MIC #2",> 64 µg/mL
same,MIC,"[9]; Enterococcus faecalis 12201, replicate 3, read-out: MIC #3",> 64 µg/mL
same,MIC,"[10]; MSSA 9144, replicate 1, read-out: MIC #1",> 64 µg/mL
same,MIC,"[10]; MSSA 9144, replicate 2, read-out: MIC #2",> 64 µg/mL
same,MIC,"[10]; MSSA 9144, replicate 3, read-out: MIC #3",> 64 µg/mL
same,MIC,"[11]; Escherichia coli NCTC12923, replicate 1, read-out: MIC #1",> 64 µg/mL
same,MIC,"[11]; Escherichia coli NCTC12923, replicate 2, read-out: MIC #2",> 64 µg/mL
same,MIC,"[11]; Escherichia coli NCTC12923, replicate 3, read-out: MIC #3",> 64 µg/mL
same,MIC,"[12]; EMRSA-16, replicate 1, read-out: MIC #1",> 64 µg/mL
same,MIC,"[12]; EMRSA-16, replicate 2, read-out: MIC #2",> 64 µg/mL
same,MIC,"[12]; EMRSA-16, replicate 3, read-out: MIC #3",> 64 µg/mL
same,MIC,"[13]; Pseudomonas aeruginosa 13437, replicate 1, read-out: MIC #1",> 64 µg/mL
same,MIC,"[13]; Pseudomonas aeruginosa 13437, replicate 2, read-out: MIC #2",> 64 µg/mL
same,MIC,"[13]; Pseudomonas aeruginosa 13437, replicate 3, read-out: MIC #3",> 64 µg/mL
same,IC50,[14],46.9 µM
